Consider four compounds from US9789058B2, “Ophthalmic composition for the treatment of ocular infection” (CooperVision International Holding Company, LP, priority 2014, dated 2017).

As a reminder, the MIC is the lowest concentration found to suppress growth. A word on the MIC50: it is an inhibitory concentration at the 50% level, which refers to growth in some studies and to a panel of isolates in others. The term MIC90 denotes the lowest concentration that inhibits either 90% of growth or 90% of the strains tested, depending on the study.

In data set [1] the test system is methicillin-resistant S. aureus (MRSA). The data set is described as follows: Broth microdilution susceptibility (MIC), MRSA isolates. In kind it is cell-based, Staphylococus aureus. The following applies: for MIC / MIC50 / MIC90 / Maximum (MIC) / Minimum (MIC): MRSA, N=25 isolates. The procedure: (§1) The MIC50 and MIC90 of εPL against methicillin-sensitive Staphylococus aureus) and MRSA were determined in these studies. (The “Minimum”, “Maximum”, and MIC50 and MIC90 in the Table are provided in units of μg/ml.) Other antimicrobial agents such as tobramycin, moxifloxacin, and PHMB (polyhexamethylene biguanid) were included for comparison. Broth microdilution tests were performed in accordance with the Clinical and Laboratory Standards Institute (CLSI) (M07-A9, Vol. 32 No. 2, January, 2012) for aerobic and facultative anaerobic strains. Cation-adjusted Mueller-Hinton broth was used for testing staphylococci species.
For orientation: In broth dilution the organism is exposed to a series of concentrations in liquid medium.

Data set [2] deals with methicillin-susceptible S. aureus (MSSA). Briefly: Broth microdilution susceptibility (MIC), MSSA isolates. The following applies: N=25 isolates. In kind it is cell-based, Staphylococus aureus. The protocol: as §1
Data set [3] deals with MRSA strain K-950. Briefly: Time-kill study (bactericidal activity). In kind it is cell-based, Staphylococus aureus. The following applies: for decrease of MRSA colony counts: 8 hours post-inoculation. The procedure:
The bactericidal activity of εPL against MRSA strain K-950 was evaluated. […] Test tubes containing 0.5 mL of εPL at 0.25 μg/mL, 1.0 μg/mL, 4.0 μg/mL or 16.0 μg/mL εPL in Mueller Hinton broth growth media and approximately 10^6 CFU/mL of K-950 were incubated at 37° C. After 1, 2, 4, 6, 8 and 24 hours of incubation, the test tubes were removed and colony forming units were calculated. To calculate CFU, 100 μL of the medium was removed from a tube and serially diluted (1:10 dilutions) in the medium. Aliquots of 100 μL of each dilution were plated, in duplicate, onto TSA agar plates containing 5% sheep's blood. The plates were incubated at 37° C. overnight and the colonies were counted the next day.

A short description of data set [4]: Ocular toxicity study in rabbits. The class given is in vivo. The protocol: Rabbits were divided into three treatment groups, each was treated with increasing concentrations of εPL (50, 150, and 500 μg/mL) in phosphate buffered saline (PBS) at pH 7.3. Specifically, rabbits from each group were dosed with a drop of εPL solution in the left eye of a rabbit eight times during a seven-hour period. The right eye was dosed with PBS. Macroscopic examinations were performed prior to the first dose, and 10 minutes following each dose. Slit lamp microscopic examinations were performed prior to the first dose and at termination. Ocular tissues were collected at termination and submitted for histological evaluation.
During the dosing period, there were some sporadic occurrences of conjunctival discharge as observed by macroscopic examination. However, they were equally divided between εePL-treated and PBS-treated eyes.

[5] abbreviates: Staphylococcus aureus, cation-adjusted Mueller-Hinton broth, read-out: Minimum (MIC).
[6] abbreviates: Staphylococcus aureus, read-out: MIC50.
Setting [7] is: Staphylococcus aureus, read-out: MIC90.
[8] abbreviates: Staphylococcus aureus, read-out: Maximum (MIC).
Where [9] appears, read: cation-adjusted Mueller-Hinton broth.

≈ marks a conversion by molar mass, not a printed value. Read-outs that look alike come from different tables or passages of the source.

With `COc1c(N2C[C@@H]3CCCN[C@@H]3C2)c(F)cc2c(=O)c(C(=O)O)cn(C3CC3)c12` [Moxifloxacin, moxifloxacin], the MIC came out at 0.03 µg/mL (≈ 0.0747 µM) in data set [1] (setting [5]), 8 µg/mL (≈ 19.9 µM) in data set [1] (setting [8]), 0.03 µg/mL (≈ 0.0747 µM) in data set [2] (setting [5]) and 1 µg/mL (≈ 2.49 µM) in data set [2] (setting [8]). Moreover, the MIC50 in data set [1] (setting [6]) stood at 1 µg/mL (≈ 2.49 µM); in data set [2] (setting [6]), 0.06 µg/mL (≈ 0.149 µM). In addition, the values for the MIC90 in data set [1] (setting [7]) and in data set [2] (setting [7]) were 4 µg/mL (≈ 9.96 µM) and 1 µg/mL (≈ 2.49 µM), respectively.
As for `NC[C@H]1O[C@H](O[C@H]2[C@H](O)[C@@H](O[C@H]3O[C@H](CO)[C@@H](O)[C@H](N)[C@H]3O)[C@H](N)C[C@@H]2N)[C@H](N)C[C@@H]1O` [Tobramycin, tobramycin], the MIC came to 0.12 µg/mL (≈ 0.257 µM) in data set [1] (setting [5]), 64 µg/mL (≈ 137 µM) in data set [1] (setting [8]), 0.12 µg/mL (≈ 0.257 µM) in data set [2] (setting [5]) and 1 µg/mL (≈ 2.14 µM) in data set [2] (setting [8]). The MIC50 was 0.5 µg/mL (≈ 1.07 µM) in data set [1] (setting [6]) and 0.25 µg/mL (≈ 0.535 µM) in data set [2] (setting [6]). Also, the MIC90 in data set [1] (setting [7]) stood at 64 µg/mL (≈ 137 µM); in data set [2] (setting [7]), 1 µg/mL (≈ 2.14 µM).
For polyhexamethylene biguanid [PHMB], the MIC50 in data set [1] and in data set [2] was 2 µg/mL each time. Moreover, the MIC90 in data set [1] and in data set [2] was 2 µg/mL in each case. Moreover, the “Maximum (MIC)” value in data set [1] came to 4 µg/mL; in data set [2], 2 µg/mL. Also, the “Minimum (MIC)” value in data set [1] (setting [9]) and in data set [2] (setting [9]) was 1 µg/mL throughout.
For the compound ε-polylysine [εPL], the “effect on the colony counts” value in data set [3] is reported as “no effect”. The “Colony Counts” value in data set [3] (0.25X MIC (1 μg/ml), 0 Hours) is recorded as 4.65 × 10^5 CFU/ml; in data set [3] (0.25X MIC (1 μg/ml), 1 Hour), 3.90 × 10^5 CFU/ml; in data set [3] (0.25X MIC (1 μg/ml), 2 Hours), 9.75 × 10^5 CFU/ml; in data set [3] (0.25X MIC (1 μg/ml), 4 Hours), 2.95 × 10^7 CFU/ml; in data set [3] (0.25X MIC (1 μg/ml), 6 Hours), 5.90 × 10^6 CFU/ml; in data set [3] (0.25X MIC (1 μg/ml), 8 Hours), 1.19 × 10^7 CFU/ml. For the same compound, the “Colony Counts” value in data set [3] (0.25X MIC (1 μg/ml), 24 Hours) is on record as 1.19 × 10^8 CFU/ml; in data set [3] (1X MIC (4 μg/ml), 4 Hours), 6.30 × 10^4 CFU/ml; in data set [3] (4X MIC (16 μg/ml), 0 Hours), 4.55 × 10^5 CFU/ml; in data set [3] (4X MIC (16 μg/ml), 1 Hour), 4.25 × 10^5 CFU/ml; in data set [3] (4X MIC (16 μg/ml), 2 Hours), 8.45 × 10^4 CFU/ml; in data set [3] (4X MIC (16 μg/ml), 4 Hours), 1.92 × 10^3 CFU/ml. Also, the “Colony Counts” value in data set [3] (4X MIC (16 μg/ml), 6 Hours) is recorded as 2.10 × 10^2 CFU/ml; in data set [3] (4X MIC (16 μg/ml), 8 Hours), 3.00 × 10^1 CFU/ml; in data set [3] (4X MIC (16 μg/ml), 24 Hours), 7.10 × 10^3 CFU/ml. Further, the “decrease of MRSA colony counts” value is reported as “more than 3 logs” in data set [3] (4 times the MIC (16.0 μg/ml)) and 2.4 Log in data set [3] (at MIC). For the same compound, the “MIC of the tested strain” value in data set [3] (MRSA strain K-950) was determined as 4.0 µg/mL. In data set [3] (time-kill study, MRSA K-950), the “action against MRSA” value is “bactericidal”. The values for the MIC50 in data set [1] and in data set [2] were 4 µg/mL and 8 µg/mL, respectively. The MIC90 in data set [1] and in data set [2] was 8 µg/mL each time. Further, the “Maximum (MIC)” value in data set [1] and in data set [2] was 8 µg/mL throughout. Besides, the “Minimum (MIC)” value in data set [1] (setting [9]) and in data set [2] (setting [9]) was 4 µg/mL in each case. Further, the MICs range in data set [1] (all 50 isolates tested (MSSA and MRSA)) is 4 to 8 µg/mL. Moreover, in data set [4] (rabbits, 50, 150 and 500 μg/mL, eight doses in seven hours), the “slit lamp microscopic examination and histologic findings” value was “did not reveal any abnormality”. In addition, the ocular tolerability result in data set [4] (rabbits, one drop in the eye eight times during a seven-hour period, concentrations up to 500 μg/mL in PBS pH 7.3) is on record as “well tolerated”.
